Consider ten compounds from PMC8942850, “Boron clusters as broadband membrane carriers” (Nature, 2022).

Like-named read-outs stand apart in the source and are kept apart here. Residues, ends and D or L forms follow the SMILES beside them.

Test [1] is described as follows: HPTS/DPX transport assay in zwitterionic EYPC vesicles. The settings on record: for Et transport efficiency: Et = Ymax × (pEC50/ft), ft = 19.8 so that WR7 equals 10.0, B12Br12^2− (40 μM) carrier, 5% error (SD) unless stated; for Ymax (%) maximal activity, transport of cargo / EC50: cargo concentration varied, B12Br12^2− (40 μM) as common carrier, EYPC⊃HPTS/DPX vesicles, pH 7.4, Hill analysis, 10% error (SD) unless stated, n.t. = no detectable transport; for Ymax (%) maximal activity, transport of cargo: 13 µM lipid, 10 mM Tris, 107 mM NaCl, HPTS fluorescence; for EC50: read-out: EC50 (μM) effective cargo concentration to reach 50% of Ymax. The arrangement: key to Et: Et = Ymax × (pEC50/ft); pEC50 = −log EC50. It counts as in vitro ADME. Here is the method: The well-established HPTS/DPX assay, which uses 8-hydroxypyrene-1,3,6-trisulfonate (HPTS) and p-xylene-bis-pyridinium (DPX), was implemented to monitor peptide-transport activation (Fig. 2a). […] A surfactant (Triton X-100) was added at the end of the experiment (t = 600 s) to release all vesicle content and normalize the fluorescence intensity data.
Fig. 2 Carrier activity obtained from the HPTS/DPX assay. a, Schematic representation of the transport of otherwise impermeable analytes facilitated by superchaotropic cluster anions with encapsulated HPTS/DPX probe/quencher pair used for signalling. […] Concentrations of carrier and cargo, when fixed, were 40 and 20 µM, respectively, unless explicitly stated. Source data
A thin lipid film was prepared by evaporating a lipid solution with a stream of nitrogen and then dried in vacuo overnight.
Fluorescence intensities were normalized to fractional emission as I(t) = (It − I0)/(I∞ − I0), where I0 = It before cluster addition and I∞ = It after lysis.
In the activator measurements, in which different activators were tested with the same cargo, the activator efficiency (Ea) is determined from their ability to activate the transport of an impermeable cargo molecule and is characterized by Ymax, its maximal activity, and EC50, the effective activator concentration. A potent activator reaches high Ymax at low EC50. To reflect both factors, the activator efficiency is defined as Ea = Ymax × (pEC50/fa), where pEC50 is the negative logarithm of EC50.
In the transport measurements, in which different types of cargo were tested with the same activator, the transport efficiency (Et) reports on the sensitivity of the cargo for being transported and is described by Ymax, the maximal activity, and EC50, the effective cargo concentration. An easily accessible cargo reaches high Ymax at low EC50. The transport efficiency is defined as a composition of both parameters according to Et = Ymax × (pEC50/ft), where pEC50 is the negative logarithm of EC50.
Extended Data Fig. 3 Transport activity. a, Transport activity, Y, in EYPC⊃HPTS/DPX vesicles as a function of cluster concentration at constant cargo concentration (WR7, 20 µM). b, Transport activity, Y, for B12Br12^2− (40 µM) in EYPC⊃HPTS/DPX vesicles as a function of the concentration of different cargo types; red lines correspond to the resulting fit with the Hill equation. Source data

For another test, the system named is HeLa cells. As to the kind of experiment: MTT viability with MMAF in absence or presence of B12Br12^2−. Type of test: cell-based. The settings on record: for mean_viability: cluster 0, mean of three technical replicates; for IC50: MMAF. Here is the method:
The incubation mixtures were replaced with DMEM + 10% FBS + 0.5 mg ml^–1 MTT. For the viability assays in the presence of B12Br12^2− or R8, HeLa, GT1-7, ARPE-19 and A549 cells were seeded the day before in 96-well plates at 6,000 cells per well. Cells were incubated with B12Br12^2− or R8 dissolved in HKR buffer for 3 h and, thereafter, incubated for 24 h with complete medium before incubating with complete medium and 0.5 mg ml^−1 MTT. For viability studies in the presence of MMAF, HeLa cells were incubated with MMAF and B12Br12^2− diluted in DMEM (without serum or antibiotics) for 3 h. Cells were washed with 0.1 mg ml^−1 heparin and further incubated for 21 h in complete medium and 2 h in complete medium containing 0.5 mg ml^−1 MTT. For all types of assays, after 2 h of incubation, the medium was carefully removed, and formazan crystals dissolved by addition of DMSO. The absorbance at 570 nm was measured with a plate reader (Tecan Infinite F200Pro) and the data normalized to the value of untreated cells (100% viability). Data were analysed with R (v. 4.0.3)[54].
Solid points indicate mean ± s.d. of three technical replicates. […] Cross-bars indicate mean ± s.d. of three independent experiments (two with technical triplicates, one with technical duplicates); values obtained in each experiment are represented by different shapes. c, Viability […] Solid points indicate mean ± s.d. of three technical replicates. d, Corresponding IC50 values of MMAF. Cross-bars indicate mean ± s.d. of four independent experiments, each with technical triplicates; each experiment is represented by a different shape. e, E. coli Top10 viability in the presence of different concentrations of kanamycin A monosulphate (0–3.5 μg/mL) and B12Br12^2− (0–1,000 μM) in LB broth at 37 °C; data are mean ± s.d. of triplicate measurements. Source data

As for `CC(=O)OCC[N+](C)(C)C` [Acetylcholine, acetylcholine], in test [1], the Et transport efficiency turned out to be 7.0; the “Ymax (%) maximal activity, transport of cargo” value (from here on “Ymax (%) maximal activity”) is 75%; the EC50 is 13.8 µM. This compound also registered an Et in test [1] (Fig.2 d, per analyte (cargo)) of 7.

As to `CC1(C)S[C@@H]2[C@H](NC(=O)[C@H](N)c3ccccc3)C(=O)N2[C@H]1C(=O)O` [Ampicillin, ampicillin, reference compound], in test [1], the Et was found to be 4.5; the Et transport efficiency came to 4.5; the “Ymax (%) maximal activity” value is listed as 74%; the EC50 was found to be 63 µM.

In the case of `CC[C@H](C)[C@@H]([C@@H](CC(=O)N1CCC[C@H]1[C@H](OC)[C@@H](C)C(=O)N[C@@H](Cc1ccccc1)C(=O)O)OC)N(C)C(=O)[C@@H](NC(=O)[C@@H](NC)C(C)C)C(C)C` [MMAF, monomethyl auristatin F] (HELM PEPTIDE1{[meV].V.[CC[C@H](C)[C@@H]([C@@H](CC(=O)[*:2])OC)N(C)[*:1]].[CO[C@H]([C@@H](C)C(=O)[*:2])[C@@H]1CCCN1[*:1]].F}$$$$V2.0), the values for the mean_viability in the test with HeLa cells (MMAF 39.0625 nM) and with HeLa cells (MMAF 78.125 nM) were 103.936 and 83.7598, respectively. The percent_viability with HeLa cells (MMAF 39.0625 nM, cluster 0, technical replicate 1) came out at 103.03; with HeLa cells (MMAF 39.0625 nM, cluster 0, technical replicate 2) it was 107.013; in the test on HeLa cells (MMAF 39.0625 nM, cluster 0, technical replicate 3), 101.765; with HeLa cells (MMAF 78.125 nM, cluster 0, technical replicate 1), 94.8234. Besides, the IC50 is 1.21 µM in the test with HeLa cells (cluster 0, 3 h in DMEM + 21 h medium, experiment_2, read-out: IC50); 1.29 µM in the test with HeLa cells (cluster 0, 3 h in DMEM + 21 h medium, experiment_3, read-out: IC50); 1.41 µM in the test on HeLa cells (cluster 0, 3 h in DMEM + 21 h medium, experiment_4, read-out: IC50); 1.21 µM in the test on HeLa cells (cluster 0, 3 h in DMEM + 21 h medium, mean of four independent experiments, read-out: mean_IC50); 0.512 µM in the test with HeLa cells (cluster 5 µM as printed, 3 h in DMEM + 21 h medium, experiment_1, read-out: IC50); 0.709 µM in the test with HeLa cells (cluster 5 µM as printed, 3 h in DMEM + 21 h medium, experiment_2, read-out: IC50). Further, the IC50 was 0.905 µM with HeLa cells (cluster 5 µM as printed, 3 h in DMEM + 21 h medium, experiment_3, read-out: IC50); 0.87 µM in the test with HeLa cells (cluster 5 µM as printed, 3 h in DMEM + 21 h medium, experiment_4, read-out: IC50); 0.467 µM with HeLa cells (cluster 10 µM as printed, 3 h in DMEM + 21 h medium, experiment_1, read-out: IC50); 0.568 µM in the test on HeLa cells (cluster 10 µM as printed, 3 h in DMEM + 21 h medium, experiment_2, read-out: IC50); 0.66 µM in the test with HeLa cells (cluster 10 µM as printed, 3 h in DMEM + 21 h medium, experiment_3, read-out: IC50); 0.583 µM in the test with HeLa cells (cluster 10 µM as printed, 3 h in DMEM + 21 h medium, experiment_4, read-out: IC50). For the same compound, the IC50 in the test with HeLa cells (cluster (B12Br12^2−) 5 mM as printed, 3 h in DMEM + 21 h medium, mean of four independent experiments, read-out: mean_IC50) worked out at 0.749 µM; in the test with HeLa cells (cluster (B12Br12^2−) 10 mM as printed, 3 h in DMEM + 21 h medium, mean of four independent experiments, read-out: mean_IC50), 0.569 µM.

Turning to `N[C@@H](Cc1ccccc1)C(=O)O` [Phenylalanine], in test [1], the Et transport efficiency amounted to 0.5 ± 0.2; the “Ymax (%) maximal activity” value came out at 10 ± 4%; the EC50 came out at 109 µM. Moreover, the Et in test [1] (Fig.2 d, per analyte (cargo)) stood at 0.5.

As for `CNC(=C[N+](=O)[O-])NCCSCc1ccc(CN(C)C)o1` [Ranitidine, reference compound], in test [1], the Et transport efficiency is on record as 3.9; the “Ymax (%) maximal activity” value is reported as 70%; the EC50 turned out to be 75.9 µM. For the same compound, the Et in test [1] (Fig.2 d, per analyte (cargo)) worked out at 3.9.

In the case of `N[C@@H](Cc1c[nH]c2ccccc12)C(=O)O` [Tryptophan], in test [1], the Et was 9.6; the Et transport efficiency is on record as 9.6; the “Ymax (%) maximal activity” value was determined as 72%; the EC50 is 2.4 µM.

`CC(=O)O[C@H]1C[C@@H]2CC[C@@H]3[C@H](CC[C@@]4(C)[C@H]3C[C@H]([N+]3(C)CCCCC3)[C@@H]4OC(C)=O)[C@@]2(C)C[C@@H]1N1CCCCC1` [Vecuronium, reference compound]: in test [1], the Et was determined as 3.5; the Et transport efficiency is 3.5; the “Ymax (%) maximal activity” value turned out to be 64%; the EC50 is 50.6 µM.

Take `Cc1ncc(C[n+]2csc(CCO)c2C)c(N)n1` [Vitamin B1]: in test [1], the Et transport efficiency worked out at 6.5; the “Ymax (%) maximal activity” value amounted to 73%; the EC50 came out at 16.6 µM. In addition, in test [1] (Fig.2 d, per analyte (cargo)), the Et came to 6.5.

Regarding phalloidin [reference compound], in test [1], the Et worked out at 2.3; the Et transport efficiency was 2.3 ± 0.3; the “Ymax (%) maximal activity” value came to 90 ± 10%; the EC50 worked out at 310 ± 70 µM.

Take protamine: in test [1], the Et transport efficiency stood at 10.0; the “Ymax (%) maximal activity” value is listed as 76%; the EC50 was found to be 2.4 µM. Moreover, in test [1] (Fig.2 d, per analyte (cargo)), the Et amounted to 10.
